Laboratory results published in patent publication US10653138B2, “Composition for attracting bed bugs” (London School of Hygiene & Tropical Medicine, priority 2015, dated 2020).

Key:
bed bugs [1] = test: Behavioural bioassay, refined synthetic blends (Example 9); format: in vivo, Cimex lectularius
Text: The behavioural bioassay was as described by Weeks et al. 2011 and recorded using EthoVision and the methodology described by Weeks et al. 2013. Each replicate was completed as a block of 10 treatments including: • 1. Bed bug-exposed paper (positive control) • 2. Ether (negative control) • 3. Nonanal 80× • 4. E-2-octenal 800× • 5. Nonanal 80× and E-2-octenal 80× (80-80) • 6. Nonanal 80× and E-2-octenal 800× (80-800) • 7. Nonanal 80× and E-2-octenal 8000× (80-8000) • 8. Nonanal 8× and E-2-octenal 800× (8-800) • 9. Nonanal 8× and E-2-octenal 8000× (8-8000) • 10. Nonanal 80×, E-2-octenal 80× and 1-octen-3-ol 80× (80-80-80)
We are referring here to either 1×, 10×, 100× or 1000× the dose of Nonanal or (E)-2-octenal found naturally in the aggregation pheromone. For instance, an “8% solution” refers to an 8% dose of volatile extract (with the various different ratios of individual component).
Therefore, 8× means that it is 1 of standard volatiles, 8×=1× standard, 80×=10× standard and 800×=100× standard. 8000×=1000× standard.
In each block the order of the treatments and the position of the odour pot were randomized. 18 blocks were completed.

bed bug antennae = test: Coupled gas chromatography-electroantennography (GC-EAG) of volatile extract from bed bug-exposed paper; design: species or system Cimex lectularius; details: for Electrophysiology Auto method: bullet = marked under the Auto method; for Responses Total: males plus females, 20 insects tested; for Responses Females: number of females giving an EAG response to the peak; for Responses Females / Responses Males: volatile extract 1 μL; for Responses Males: number of males giving an EAG response to the peak; for electroantennogram (EAG) response: result in words; for Visual inspection (no of responses) >5 / Visual inspection (no of responses) >10 / Visual inspection (no of responses) >15: threshold of individuals responding; for Visual inspection (no of responses) Response: total EAG responses, Table 8
Text: Experimental insects, unless otherwise stated, were mated males and females of C. lectularius that had been fed 7 to 14 days previously on heparinised sheep blood. The electrodes used to make recordings were Ag/AgCl wires (diameter 0.37 mm) inserted into glass pipettes, made from borosilicate glass capillaries (outer diameter 2.0 mm; inner diameter 1.16 mm). The glass pipettes were filled with Ringers solution (7.55 g NaCl, 0.64 g KCl, 0.22 g CaCl2, 1.73 g MgCl2 g, 0.86 g NaHCO3 and 0.61 g Na3PO4 L^−1 water). The bed bug was then chilled on ice for one minute before dissection. Preparations were held in a continuous, humidified, charcoal filtered air flow ([…]) coming from a glass tube, which was positioned 5 mm from the antennal preparation. Once the antennal preparation and EAG equipment were in position the microscope light was switched off.
The GC used was a HP-680N, containing a HP-1 column (30 m×0.32 mm; film thickness, 0.52 μm) with a COC injector, hydrogen carrier gas and a FID. The oven temperature was maintained at 40° C. for two min and then programmed at 5° C. min^−1 to 100° C. and then at 10° C. […] to 250° C. The end of the column was inserted into the centre of the main air flow so that the eluent went over the antennal preparation. […] Amplification of the signals was set at ×10,000. Signals were analysed using the computer-based software package, EAD 2000 (Syntech®, The Netherlands). The volatile extract (1 μL) from an air entrainment of bed bug-exposed papers (see Example 1) was injected onto the column. A solution of n-alkanes (C7-C25, 1 μL of 100 ng μL^−1) in hexane was also analysed to calculate the retention indices (RI) of any EAG-active peaks for comparison with GC and coupled GC-MS traces (Equation 1).
Electroantennographic (EAG) responses from the coupled gas chromatography-electroantennographic (GC-EAG) analysis of the volatile extract collected using air entrainment were determined by visual appearance. Coupled GC-EAG traces were examined visually on a light box to identify EAG responses and match them to peaks on the GC traces. A combination of characteristics including the amplitude and shape of the deflection from the baseline were used to identify EAG responses. For example, an EAG response is usually of greater amplitude than the background noise and it has a characteristic negative deflection followed by a quick positive deflection resulting in a short sharp response often of similar shape and position as the corresponding peak on the GC trace. Responses were matched between males and females separately onto master traces for each sex. The EAG-active peaks were labelled from 1 to 21. Male and female master traces were then overlaid to identify where consistent responses occurred in both sexes. Five or more individuals responding at the same retention time on the GC trace was considered to be a consistent EAG response and the corresponding peak on the GC trace was considered to be EAG-active. Three thresholds were used: greater than 5, greater than 10 or greater than 15 individuals responding to the same GC peak or at the same retention time. The traces were then subjected to manual or automated statistical analysis.

bed bugs [2] = test: Behavioural bioassay, dose responses of individual chemicals (Example 8); format: in vivo, Cimex lectularius; details: for dose response: 0.008× to 8000×; for doses on which further synthetic blends should focus: × relative to 8% natural standard (8×=1× standard)
Procedure: Methods: The behavioural bioassay was as described by Weeks et al. 2011 and recorded using EthoVision and the methodology described by Weeks et al. 2013. For each chemical, (E)-2-octenal, (RS)-1-octen-3-ol and nonanal, seven doses were tested from 0.008× to 8000×, along with three controls. Each replicate was completed as a block of 10 treatments including: We are referring here to either 0.001×, 0.01×, 0.1×, 1×, 10×, 100× or 1000× the dose of (E)-2-octenal found naturally in the aggregation pheromone. For instance, an “8% solution” refers to an 8% dose of volatile extract (with the various different ratios of individual component). In each block the order of the treatments and the position of the odour pot were randomized. 10 blocks were completed for each chemical (n=10).

bed bugs [3] = details: volatile components of aggregation pheromone; cited from earlier work

| SMILES | zone duration compared to zero (bed bugs [1]; nonanal 80) | Electrophysiology Auto method (bed bug antennae) | Responses Total (bed bug antennae) | Responses Females (bed bug antennae) | Responses Males (bed bug antennae) | electroantennogram (EAG) response (bed bug antennae) | Visual inspection (no of responses) >5 (bed bug antennae) | Visual inspection (no of responses) >10 (bed bug antennae) | Visual inspection (no of responses) >15 (bed bug antennae) | Visual inspection (no of responses) Response (bed bug antennae) | dose response (bed bugs [2]) | doses on which further synthetic blends should focus (bed bugs [2]) | time spent over the odour pot compared with blends (bed bugs [1]; (E)-2-octenal 800 treatment) | attraction of bed bugs to safe shelters (bed bugs [3]) |
| --- | --- | --- | --- | --- | --- | --- | --- | --- | --- | --- | --- | --- | --- | --- |
| CCCCCCCCC=O [Nonanal, nonanal] | significantly greater in time spent above the odour pot in the odour zone | • | 17 | 9 | 8 | EAG-active | • (>5) | • (>10) | • (>15) | 17 | clear dose response was observed | 8-80 × | – | – |
| CCCCC/C=C/C=O (single isomer, unassigned) [(E)-2-octenal] | – | • | 16 | 8 | 8 | EAG-active | • (>5) | • (>10) | • (>15) | 16 | clear dose response was observed | 800-8000 × | significantly lower in time spent over the odour pot than 80-800 and 8-800 | attract bed bugs to safe shelters |
